In ChEMBL document CHEMBL4507288 (2021):

Experiments:
[1] = biological target: Protein-tyrosine kinase 6 (Homo sapiens) (UniProt Q13882); conditions: Compound concentration 1000.0 nM
[2] = biological target: Receptor-type tyrosine-protein kinase FLT3 (Homo sapiens) (UniProt P36888); conditions: Compound concentration 1000.0 nM
[3] = biological target: Serine/threonine-protein kinase tousled-like 2 (Homo sapiens) (UniProt Q86UE8); conditions: Compound concentration 1000.0 nM
[4] = biological target: Serine/threonine-protein kinase LATS2 (Homo sapiens) (UniProt Q9NRM7); conditions: Compound concentration 1000.0 nM
[5] = biological target: Serine/threonine-protein kinase 32B (Homo sapiens) (UniProt Q9NY57); conditions: Compound concentration 1000.0 nM
[6] = biological target: Cyclin-dependent kinase-like 1 (Homo sapiens) (UniProt Q00532); conditions: Compound concentration 1000.0 nM
[7] = biological target: Cyclin-dependent kinase 3 (Homo sapiens) (UniProt Q00526); conditions: Compound concentration 1000.0 nM
[8] = biological target: Beta-2 adrenergic receptor (Homo sapiens) (UniProt P07550); conditions: Compound concentration 10.0 uM
[9] = biological target: Dual specificity protein kinase TTK (Homo sapiens) (UniProt P33981); conditions: Compound concentration 1000.0 nM
[10] = biological target: Serine/threonine-protein kinase 38-like (Homo sapiens) (UniProt Q9Y2H1); conditions: Compound concentration 1000.0 nM
[11] = biological target: Cyclin-dependent kinase 14 (Homo sapiens) (UniProt O94921); conditions: Compound concentration 1000.0 nM
[12] = tested on: Tyrosine-protein kinase ABL1 (Homo sapiens), P00519 [T315I]; conditions: Compound concentration 1000.0 nM
[13] = biological target: Activin receptor type-2B (Homo sapiens) (UniProt Q13705); conditions: Compound concentration 1000.0 nM
[14] = biological target: Tyrosine-protein kinase receptor UFO (Homo sapiens) (UniProt P30530); conditions: Compound concentration 1000.0 nM
[15] = biological target: Interleukin-1 receptor-associated kinase 1 (Homo sapiens) (UniProt P51617); conditions: Compound concentration 1000.0 nM
Sequence of Interleukin-1 receptor-associated kinase 1 (Homo sapiens) (P51617 whole entry, looked up): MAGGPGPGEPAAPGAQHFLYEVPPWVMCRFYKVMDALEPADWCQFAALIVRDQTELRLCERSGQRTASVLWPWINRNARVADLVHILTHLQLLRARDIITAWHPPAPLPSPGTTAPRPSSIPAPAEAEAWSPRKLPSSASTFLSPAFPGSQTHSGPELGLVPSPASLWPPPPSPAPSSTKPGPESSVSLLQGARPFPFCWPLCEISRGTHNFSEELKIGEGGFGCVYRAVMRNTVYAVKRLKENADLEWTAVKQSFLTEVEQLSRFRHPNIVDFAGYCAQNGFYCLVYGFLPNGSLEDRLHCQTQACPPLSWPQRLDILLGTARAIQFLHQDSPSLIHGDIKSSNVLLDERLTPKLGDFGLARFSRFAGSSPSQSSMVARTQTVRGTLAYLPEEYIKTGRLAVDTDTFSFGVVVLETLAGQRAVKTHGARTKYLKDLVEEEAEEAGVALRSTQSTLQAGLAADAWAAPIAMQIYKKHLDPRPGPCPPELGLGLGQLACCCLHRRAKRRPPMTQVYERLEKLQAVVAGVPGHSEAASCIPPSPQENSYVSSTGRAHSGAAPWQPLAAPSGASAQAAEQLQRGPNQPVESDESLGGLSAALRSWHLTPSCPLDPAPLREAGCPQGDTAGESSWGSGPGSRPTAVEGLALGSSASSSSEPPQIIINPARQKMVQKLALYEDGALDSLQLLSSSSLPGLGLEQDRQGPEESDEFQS

[16] = biological target: Tyrosine-protein kinase JAK1 (Homo sapiens) (UniProt P23458); conditions: Compound concentration 1000.0 nM
[17] = biological target: Phosphorylase b kinase regulatory subunit alpha, liver isoform (Homo sapiens) (UniProt P46019); conditions: Compound concentration 1000.0 nM
[18] = biological target: Serine/threonine-protein kinase NLK (Homo sapiens) (UniProt Q9UBE8); conditions: Compound concentration 1000.0 nM
[19] = biological target: Bone morphogenetic protein receptor type-1B (Homo sapiens) (UniProt O00238); conditions: Compound concentration 1000.0 nM
Sequence of Bone morphogenetic protein receptor type-1B (Homo sapiens) (O00238 whole entry): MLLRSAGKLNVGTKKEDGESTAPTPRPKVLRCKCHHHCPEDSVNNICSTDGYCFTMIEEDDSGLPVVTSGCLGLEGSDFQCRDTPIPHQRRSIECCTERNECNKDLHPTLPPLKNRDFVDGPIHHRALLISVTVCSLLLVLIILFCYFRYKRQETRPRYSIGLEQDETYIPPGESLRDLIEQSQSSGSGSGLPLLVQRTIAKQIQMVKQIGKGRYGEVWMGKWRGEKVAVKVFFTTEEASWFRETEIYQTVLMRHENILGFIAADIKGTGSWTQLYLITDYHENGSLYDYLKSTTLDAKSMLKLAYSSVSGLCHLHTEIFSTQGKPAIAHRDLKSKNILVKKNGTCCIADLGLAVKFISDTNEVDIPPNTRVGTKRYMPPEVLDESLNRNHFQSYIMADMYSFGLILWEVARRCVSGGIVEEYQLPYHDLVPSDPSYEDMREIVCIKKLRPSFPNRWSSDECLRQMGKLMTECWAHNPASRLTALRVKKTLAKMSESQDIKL

[20] = tested on: Epidermal growth factor receptor (Homo sapiens), P00533 [T790M]; conditions: Compound concentration 1000.0 nM
[21] = biological target: LIM domain kinase 2 (Homo sapiens) (UniProt P53671); conditions: Compound concentration 1000.0 nM
[22] = tested on: Tyrosine-protein kinase ABL1 (Homo sapiens), P00519 [F317I]; conditions: Compound concentration 1000.0 nM
[23] = biological target: Casein kinase I isoform delta (Homo sapiens) (UniProt P48730); conditions: Compound concentration 1000.0 nM
[24] = biological target: Serine/threonine-protein kinase OSR1 (Homo sapiens) (UniProt O95747); conditions: Compound concentration 1000.0 nM
[25] = biological target: Non-receptor tyrosine-protein kinase TNK1 (Homo sapiens) (UniProt Q13470); conditions: Compound concentration 1000.0 nM
[26] = biological target: Calcium/calmodulin-dependent protein kinase type 1 (Homo sapiens) (UniProt Q14012); conditions: Compound concentration 1000.0 nM
[27] = biological target: Serine/threonine-protein kinase mTOR (Homo sapiens) (UniProt P42345); conditions: Compound concentration 1000.0 nM
[28] = biological target: Fibroblast growth factor receptor 1 (Homo sapiens) (UniProt P11362); conditions: Compound concentration 1000.0 nM
Sequence of Fibroblast growth factor receptor 1 (Homo sapiens) (P11362 22-822 limits assumed): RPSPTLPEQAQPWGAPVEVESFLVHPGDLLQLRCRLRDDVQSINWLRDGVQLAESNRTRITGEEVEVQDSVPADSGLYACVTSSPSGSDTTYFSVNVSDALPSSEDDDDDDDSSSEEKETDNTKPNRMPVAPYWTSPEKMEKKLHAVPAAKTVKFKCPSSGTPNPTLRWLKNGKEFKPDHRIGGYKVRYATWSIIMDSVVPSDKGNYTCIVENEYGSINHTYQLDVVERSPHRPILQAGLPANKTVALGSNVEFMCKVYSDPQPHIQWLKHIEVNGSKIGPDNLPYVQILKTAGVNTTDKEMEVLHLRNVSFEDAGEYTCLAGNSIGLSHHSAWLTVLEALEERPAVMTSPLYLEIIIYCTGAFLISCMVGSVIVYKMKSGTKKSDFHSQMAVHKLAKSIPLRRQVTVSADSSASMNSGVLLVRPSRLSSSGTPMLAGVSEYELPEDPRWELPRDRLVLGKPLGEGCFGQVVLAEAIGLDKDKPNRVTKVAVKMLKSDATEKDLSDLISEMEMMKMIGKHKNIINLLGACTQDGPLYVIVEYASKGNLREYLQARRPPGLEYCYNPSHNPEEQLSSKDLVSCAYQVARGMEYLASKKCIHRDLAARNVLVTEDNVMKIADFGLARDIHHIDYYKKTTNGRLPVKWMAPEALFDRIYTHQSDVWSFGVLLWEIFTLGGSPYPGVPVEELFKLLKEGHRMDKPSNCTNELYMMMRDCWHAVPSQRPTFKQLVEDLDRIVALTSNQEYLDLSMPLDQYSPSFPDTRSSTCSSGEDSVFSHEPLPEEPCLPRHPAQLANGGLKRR

[29] = biological target: Insulin-like growth factor 1 receptor (Homo sapiens) (UniProt P08069); conditions: Compound concentration 1000.0 nM
Sequence of Insulin-like growth factor 1 receptor (Homo sapiens) (P08069 31-736 limits assumed): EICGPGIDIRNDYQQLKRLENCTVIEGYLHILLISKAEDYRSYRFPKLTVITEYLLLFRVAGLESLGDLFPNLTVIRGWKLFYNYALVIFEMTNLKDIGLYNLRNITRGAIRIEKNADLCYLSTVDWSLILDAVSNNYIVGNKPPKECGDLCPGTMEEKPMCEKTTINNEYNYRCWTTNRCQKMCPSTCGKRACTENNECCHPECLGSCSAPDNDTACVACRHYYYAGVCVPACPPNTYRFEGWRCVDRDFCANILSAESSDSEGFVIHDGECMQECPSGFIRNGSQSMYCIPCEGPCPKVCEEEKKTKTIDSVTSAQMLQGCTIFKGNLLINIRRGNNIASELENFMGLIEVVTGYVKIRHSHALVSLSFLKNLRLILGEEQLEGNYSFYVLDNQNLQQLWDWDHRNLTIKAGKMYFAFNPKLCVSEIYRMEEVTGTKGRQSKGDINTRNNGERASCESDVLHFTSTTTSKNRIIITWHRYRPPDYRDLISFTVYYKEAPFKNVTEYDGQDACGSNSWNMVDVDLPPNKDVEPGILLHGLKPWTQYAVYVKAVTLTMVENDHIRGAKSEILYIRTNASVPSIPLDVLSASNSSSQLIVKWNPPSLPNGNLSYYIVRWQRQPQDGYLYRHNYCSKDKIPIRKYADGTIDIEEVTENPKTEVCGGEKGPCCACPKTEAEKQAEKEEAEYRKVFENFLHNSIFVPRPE
Sequence of Insulin-like growth factor 1 receptor (Homo sapiens) (P08069 741-1367 limits assumed): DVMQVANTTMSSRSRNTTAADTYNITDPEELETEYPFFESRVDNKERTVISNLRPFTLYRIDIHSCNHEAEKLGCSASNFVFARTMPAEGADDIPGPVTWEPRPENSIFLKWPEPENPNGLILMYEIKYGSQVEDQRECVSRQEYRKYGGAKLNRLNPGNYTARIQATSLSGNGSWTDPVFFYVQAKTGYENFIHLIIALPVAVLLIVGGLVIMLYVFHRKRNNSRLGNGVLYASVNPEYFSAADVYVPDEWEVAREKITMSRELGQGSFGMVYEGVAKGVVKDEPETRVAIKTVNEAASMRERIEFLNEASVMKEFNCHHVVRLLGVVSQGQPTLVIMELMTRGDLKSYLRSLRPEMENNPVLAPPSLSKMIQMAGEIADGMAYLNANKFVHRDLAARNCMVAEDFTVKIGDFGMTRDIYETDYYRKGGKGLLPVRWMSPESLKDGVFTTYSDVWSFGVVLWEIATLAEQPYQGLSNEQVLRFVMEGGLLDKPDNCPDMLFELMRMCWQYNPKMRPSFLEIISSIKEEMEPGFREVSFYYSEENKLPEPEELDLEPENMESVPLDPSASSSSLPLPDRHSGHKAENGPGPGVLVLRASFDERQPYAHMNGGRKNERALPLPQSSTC

[30] = biological target: Casein kinase I isoform gamma-3 (Homo sapiens) (UniProt Q9Y6M4); conditions: Compound concentration 1000.0 nM
[31] = biological target: Serine/threonine-protein kinase MARK2 (Homo sapiens) (UniProt Q7KZI7); conditions: Compound concentration 1000.0 nM
[32] = biological target: MAP kinase-interacting serine/threonine-protein kinase 2 (Homo sapiens) (UniProt Q9HBH9); conditions: Compound concentration 1000.0 nM
[33] = biological target: Phosphatidylinositol 4-phosphate 5-kinase type-1 gamma (Homo sapiens) (UniProt O60331); conditions: Compound concentration 1000.0 nM
[34] = biological target: Mitogen-activated protein kinase kinase kinase 7 (Homo sapiens) (UniProt O43318); conditions: Compound concentration 1000.0 nM
[35] = biological target: Cyclin-dependent kinase 4 (Homo sapiens) (UniProt P11802); conditions: Compound concentration 1000.0 nM
[36] = biological target: Homeodomain-interacting protein kinase 2 (Homo sapiens) (UniProt Q9H2X6); conditions: Compound concentration 1000.0 nM
[37] = biological target: Serine/threonine-protein kinase WNK3 (Homo sapiens) (UniProt Q9BYP7); conditions: Compound concentration 1000.0 nM
[38] = biological target: Tyrosine-protein kinase Lck (Homo sapiens) (UniProt P06239); conditions: Compound concentration 1000.0 nM
[39] = biological target: Dual specificity protein kinase CLK1 (Homo sapiens) (UniProt P49759); conditions: Compound concentration 1000.0 nM
[40] = biological target: Mitotic checkpoint serine/threonine-protein kinase BUB1 (Homo sapiens) (UniProt O43683); conditions: Compound concentration 1000.0 nM
[41] = biological target: Serine/threonine-protein kinase TAO3 (Homo sapiens) (UniProt Q9H2K8); conditions: Compound concentration 1000.0 nM
[42] = biological target: G protein-coupled receptor kinase 3 (Homo sapiens) (UniProt P35626); conditions: Compound concentration 1000.0 nM
[43] = biological target: Serine/threonine-protein kinase pim-2 (Homo sapiens) (UniProt Q9P1W9); conditions: Compound concentration 1000.0 nM
[44] = biological target: Mitogen-activated protein kinase 10 (Homo sapiens) (UniProt P53779); conditions: Compound concentration 1000.0 nM
Sequence of Mitogen-activated protein kinase 10 (Homo sapiens) (P53779 whole entry): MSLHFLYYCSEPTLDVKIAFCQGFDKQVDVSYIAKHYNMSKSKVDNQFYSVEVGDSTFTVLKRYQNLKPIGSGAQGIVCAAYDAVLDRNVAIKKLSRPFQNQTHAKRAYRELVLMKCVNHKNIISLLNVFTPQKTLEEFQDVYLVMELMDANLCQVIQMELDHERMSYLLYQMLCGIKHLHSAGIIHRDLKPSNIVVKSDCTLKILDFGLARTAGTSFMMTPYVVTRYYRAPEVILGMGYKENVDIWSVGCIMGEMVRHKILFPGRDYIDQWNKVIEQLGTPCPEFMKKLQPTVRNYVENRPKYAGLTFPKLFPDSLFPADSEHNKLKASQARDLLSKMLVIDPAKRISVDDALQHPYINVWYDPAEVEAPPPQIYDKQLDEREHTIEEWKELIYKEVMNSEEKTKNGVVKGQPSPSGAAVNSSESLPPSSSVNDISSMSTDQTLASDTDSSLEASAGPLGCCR

[45] = biological target: RAC-beta serine/threonine-protein kinase (Homo sapiens) (UniProt P31751); conditions: Compound concentration 1000.0 nM

Sequence of Receptor-type tyrosine-protein kinase FLT3 (Homo sapiens) (P36888 whole entry): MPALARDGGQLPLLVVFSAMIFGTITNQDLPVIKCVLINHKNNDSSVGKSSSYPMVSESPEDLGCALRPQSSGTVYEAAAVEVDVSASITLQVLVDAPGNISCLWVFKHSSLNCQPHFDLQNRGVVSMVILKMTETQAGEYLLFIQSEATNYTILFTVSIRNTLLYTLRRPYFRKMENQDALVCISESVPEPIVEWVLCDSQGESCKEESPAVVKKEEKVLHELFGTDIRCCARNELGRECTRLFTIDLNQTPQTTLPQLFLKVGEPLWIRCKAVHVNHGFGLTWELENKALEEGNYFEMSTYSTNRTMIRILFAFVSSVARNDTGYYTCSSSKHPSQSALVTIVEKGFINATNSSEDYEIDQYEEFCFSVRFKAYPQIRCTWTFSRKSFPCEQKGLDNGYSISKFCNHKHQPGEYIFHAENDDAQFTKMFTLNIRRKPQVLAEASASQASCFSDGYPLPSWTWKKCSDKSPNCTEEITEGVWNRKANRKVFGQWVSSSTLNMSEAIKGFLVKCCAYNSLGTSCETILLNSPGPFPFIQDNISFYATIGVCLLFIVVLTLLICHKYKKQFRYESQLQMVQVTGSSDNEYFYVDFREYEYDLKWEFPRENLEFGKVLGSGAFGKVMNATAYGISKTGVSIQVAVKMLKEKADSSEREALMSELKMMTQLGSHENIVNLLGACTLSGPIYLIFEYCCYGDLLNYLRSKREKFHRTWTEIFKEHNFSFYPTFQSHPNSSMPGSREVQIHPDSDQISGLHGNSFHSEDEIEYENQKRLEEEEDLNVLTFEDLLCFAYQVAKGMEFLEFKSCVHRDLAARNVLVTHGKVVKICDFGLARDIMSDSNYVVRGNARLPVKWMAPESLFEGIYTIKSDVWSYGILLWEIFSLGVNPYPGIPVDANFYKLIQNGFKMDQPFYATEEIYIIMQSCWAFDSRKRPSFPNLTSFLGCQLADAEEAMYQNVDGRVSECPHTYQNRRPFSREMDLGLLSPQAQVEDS

SMILES: O=S(=O)(NC1CCC(c2cc(F)ccc2F)(S(=O)(=O)c2ccc(Cl)cc2)CC1)C(F)(F)F (stereo not given) [MRK-560]
- residual activity [1]: 95%
- residual activity [2]: 100%
- residual activity [3]: 100%
- residual activity [4]: 0%
- residual activity [5]: 100%
- residual activity [6]: 100%
- residual activity [7]: 100%
- inhibition [8]: 9.91%
- residual activity [9]: 70%
- residual activity [10]: 75%
- residual activity [11]: 100%
- residual activity [12]: 90%
- residual activity [13]: 95%
- residual activity [14]: 100%
- residual activity [15]: 93%
- residual activity [16]: 70%
- residual activity [17]: 91%
- residual activity [18]: 100%
- residual activity [19]: 100%
- residual activity [20]: 93%
- residual activity [21]: 87%
- residual activity [22]: 100%
- residual activity [23]: 87%
- residual activity [24]: 91%
- residual activity [25]: 98%
- residual activity [26]: 84%
- residual activity [27]: 94%
- residual activity [28]: 100%
- residual activity [29]: 100%
- residual activity [30]: 83%
- residual activity [31]: 100%
- residual activity [32]: 57%
- residual activity [33]: 87%
- residual activity [34]: 100%
- residual activity [35]: 100%
- residual activity [36]: 81%
- residual activity [37]: 100%
- residual activity [38]: 100%
- residual activity [39]: 78%
- residual activity [40]: 100%
- residual activity [41]: 100%
- residual activity [42]: 92%
- residual activity [43]: 100%
- residual activity [44]: 67%
- residual activity [45]: 99%
